Source: patent publication US20100075893A1, “PREPARATION OF A PHARMACEUTICAL COMPOSITION FOR INCREASING BONE MINERAL DENSITY” (priority 2008, published 2010)
Positions of bridges follow the written chain, without caps; N, C: chain ends. No end group written: not given here.

How the values were obtained:
[1] = tested on: C57B1/6J females; assay: CART slow release formulation vs. daily CART injections, bone mineral density in mice (in vivo micro-CT, distal femur); conditions: daily s.c. injections of 2 μg in 0.9% NaCl, 30 days
Method: In this experiment the effectiveness of CART peptide to improve bone mineral density via a slow release formulation was compared with daily injections of CART. The experiment was conducted in 12 weeks old C57B1/6J females and consisted of four experimental groups (n=5 per group). In the first group of mice 2 placebo slow release pellets (SX-999, 60 day pellets, Innovative Research of America, Sarasota, Fla.) were implanted subcutaneously in the neck. In the second group 2 SX-999 slow release pellets containing 50 μg rat CART55-102 (Phoenix Pharmaceuticals, Inc. Belmont, Calif.) each, were implanted subcutaneously in the neck. The other two groups received daily s.c. injections with either vehicle (0.9% NaCl) or with 2 μg rat CART55-102 peptide in 0.9% NaCl. Mice were sedated with injection anaesthetics (Hypnorm (VetaPharma, Leeds, UK)/Dormicum (Roche, Mijdrecht, The Netherlands)) and bone density was determined in the distal femur by an in vivo micro-CT measurement (Skyscan1076 micro CT scanner, Skyscan, Belgium) at T=0 and at T=30 days. Blood was collected weekly by orbita puncture to determine serum CART levels. BMD (g/cm^3) was expressed as mean±SD of the individual data. Statistical analysis was performed using the Student T-test (two-tailed). P<0.05 was considered as significant.

[2] = tested on: C57B1/6J females; assay: Bone mineral density increase in mice by slow release CART treatment (in vivo micro-CT, distal femur)
Method: In this experiment mice were treated with 3 different concentrations of CART peptide. The experiment was conducted in 12 weeks old C57B1/6J females and consisted of four experimental groups (n=5 per group). The first group of mice received placebo slow release pellets (SX-999, 60 day slow release pellets, Innovative Research of America, Sarasota, Fla.). The other three groups were treated with SX-999 slow release pellets containing either 20 μg, 50 μg or 100 μg (2×50 μg) rat CART 55-102 peptide (rCART) (Phoenix Pharmaceuticals, Inc. Belmont, Calif.). Mice were sedated with injection anaesthetics (Hypnorm (VetaPharma, Leeds, UK)/Dormicum (Roche, Mijdrecht, The Netherlands)) and the pellets were implanted subcutaneously in the neck. Bone architecture and density was determined at the distal femur at T=0 by an in vivo micro-CT measurement (Skyscan1076 micro-CT scanner, Skyscan, Kontich, Belgium). Scans were performed at 9 μm resolution. Trabecular bone analysis was performed on a 2 mm slice 150 μm proximal to the distal growth plate of the femur. In vivo micro-CT measurements were repeated at day 28 and day 60. The BMD value of the placebo group at T=0, T=28 and T=60 days was set at 100% and the BMD values of the 20 μg, 50 μg and 100 μg (2×50 μg) CART treated groups were calculated relatively to the placebo group. Values are expressed as mean±SD of the individual data. For statistical analysis the treatment groups were compared with the placebo group of the corresponding time point in a standard Student T-test (two-tailed). P<0.05 was considered as significant.

[3] = tested on: bovine granulosa cells; assay: CART induced suppression of FSH-induced 17β-estradiol production in bovine granulosa cells; format: cell-based; conditions: 1 μM CART peptide, 7 days culture
Method: Ovaries from double muscled cows were obtained at a local abattoir and granulosa cells were collected from 3- to 5-mm follicles at random stages of the estrus cycle. Follicles were placed in culture medium (M505 medium (Gibco Invitrogen, Carlsbad, Calif., USA) supplemented with antibiotics (100 IU/ml penicillin and 0.1 mg/ml streptomycin (Invitrogen, Carlsbad, Calif., USA), 10 ng/mL insulin (Schering-Plough, Oss, The Netherlands), 4 ng/mL sodium selenite (Sigma Aldrich, St. Louis, Mo., USA), 5 μg/mL apo-transferrin (Sigma Aldrich, St. Louis, Mo., USA) and 10^−7M androstenedione (Org 6, Schering-Plough, Oss, The Netherlands)) at 37° C. Follicles were ruptured with a needle and the cells were passed through a cell strainer (70 μm nylon, Becton Dickinson, Bedford, USA). Cells were centrifuged for 10 min at 340×g and resuspended in culture medium. Cells (1×10^5 viable cells/well) were cultured in 96 wells plate for 7 days at 37° C. in a humidified atmosphere (5% CO2, 95% air) in the presence of 0, 20, 100 or 300 mUnits FSH (Org 32489, Schering-Plough, Oss, The Netherlands) in combination with […], 10^−7, […], 10^−9, 10^−10, 10^−11 or 10^−12M rat CART 55-102 (Phoenix Pharmaceuticals Inc., Belmont, Calif., USA). […] After 7 days 17β-estradiol levels were determined in the culture medium using a 17β-estradiol ELISA (Diagnostic Systems Laboratories Inc., Marburg, Germany).

Ile-Pro-Ile-Tyr-Glu-Lys-Lys-Tyr-Gly-Gln-Val-Pro-Met-Cys-Asp-Ala-Gly-Glu-Gln-Cys-Ala-Val-Arg-Lys-Gly-Ala-Arg-Ile-Gly-Lys-Leu-Cys-Asp-Cys-Pro-Arg-Gly-Thr-Ser-Cys-Asn-Ser-Phe-Leu-Leu-Lys-Cys-Leu (IPIYEKKYGQVPMCDAGEQCAVRKGARIGKLCDCPRGTSCNSFLLKCL; disulfide 14-32, 20-40, 34-47; ends not checked) [rat CART 55-102, rat CART 55-102 peptide (rCART) (Phoenix Pharmaceuticals, Inc.)]
increase in BMD [1]: did not show an increase in BMD | increase in trabecular bone mineral density (BMD) as compared to the placebo group ([2]; 50 μg rCART in SX-999 slow release pellet s.c., after 60 days): 40-50% | increase in trabecular bone mineral density (BMD) as compared to the placebo group ([2]; 100 μg (2×50 μg) rCART in SX-999 slow release pellets s.c., after 28 days): 50-60% | increase in trabecular bone mineral density (BMD) as compared to the placebo group ([2]; 100 μg (2×50 μg) rCART in SX-999 slow release pellets s.c., after 28 days, listed as CART peptide): 50% | increase in trabecular bone mineral density (BMD) as compared to the placebo group ([2]; 100 μg (2×50 μg) rCART in SX-999 slow release pellets s.c., after 60 days): 80% | suppression of FSH-induced 17β-estradiol production ([3]; 100 mUnits FSH): 1.5 fold | suppression of FSH-induced 17β-estradiol production ([3]; 300 mUnits FSH): 3 fold
